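The compound was tested at five concentrations on cells cultured in 96-well plates, with a 48-hour exposure period. TGI marks complete inhibition of growth.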
Assays:
Test in all cases: NCI tumour cell line growth inhibition, 48 h
786-0 renal = system: 786-0 renal
A498 renal = system: A498 renal
A549 NSCLC = system: A549 NSCLC
ACHN renal = system: ACHN renal
CAKI-1 renal = system: CAKI-1 renal
CCRF-CEM leukemia = system: CCRF-CEM leukemia
COLO 205 colon = system: COLO 205 colon
DU-145 prostate = system: DU-145 prostate
EKVX NSCLC = system: EKVX NSCLC
HCC-2998 colon = system: HCC-2998 colon
HCT-116 colon = system: HCT-116 colon
HCT-15 colon = system: HCT-15 colon
HL-60(TB) leukemia = system: HL-60(TB) leukemia
HOP-62 NSCLC = system: HOP-62 NSCLC
HS 578T breast = system: HS 578T breast
HT29 colon = system: HT29 colon
IGROV1 ovarian = system: IGROV1 ovarian
KM12 colon = system: KM12 colon
LOX IMVI melanoma = system: LOX IMVI melanoma
M14 melanoma = system: M14 melanoma
MALME-3M melanoma = system: MALME-3M melanoma
MCF7 breast = system: MCF7 breast
MDA-MB-231 breast = system: MDA-MB-231 breast
MDA-MB-435 = system: MDA-MB-435
MDA-N = system: MDA-N
MOLT-4 leukemia = system: MOLT-4 leukemia
NCI-H226 lung = system: NCI-H226 lung
NCI-H23 lung = system: NCI-H23 lung
NCI-H460 lung = system: NCI-H460 lung
NCI-H522 lung = system: NCI-H522 lung
NCI/ADR-RES ovarian = system: NCI/ADR-RES ovarian
OVCAR-3 ovarian = system: OVCAR-3 ovarian
OVCAR-4 ovarian = system: OVCAR-4 ovarian
OVCAR-5 ovarian = system: OVCAR-5 ovarian
OVCAR-8 ovarian = system: OVCAR-8 ovarian
PC-3 prostate = system: PC-3 prostate
RPMI-8226 leukemia = system: RPMI-8226 leukemia
RXF 393 renal = system: RXF 393 renal
SF-268 CNS = system: SF-268 CNS
SF-295 CNS = system: SF-295 CNS
SF-539 CNS = system: SF-539 CNS
SK-MEL-2 melanoma = system: SK-MEL-2 melanoma
SK-MEL-28 melanoma = system: SK-MEL-28 melanoma
SK-MEL-5 melanoma = system: SK-MEL-5 melanoma
SN12C renal = system: SN12C renal
SNB-19 CNS = system: SNB-19 CNS
SNB-75 CNS = system: SNB-75 CNS
SR leukemia = system: SR leukemia
SW-620 colon = system: SW-620 colon
T-47D breast = system: T-47D breast
TK-10 renal = system: TK-10 renal
U251 CNS = system: U251 CNS
UACC-257 melanoma = system: UACC-257 melanoma
UACC-62 melanoma = system: UACC-62 melanoma
UO-31 renal = system: UO-31 renal
HOP-92 NSCLC = system: HOP-92 NSCLC
K-562 leukemia = system: K-562 leukemia
SK-OV-3 ovarian = system: SK-OV-3 ovarian

## O=C(O)c1cc(-c2ccc3c(O)ccc(O)c3c2)ccc1O
786-0 renal
  TGI: 30.2 µM
A498 renal
  TGI: 32 µM
A549 NSCLC
  TGI: > 100 µM
ACHN renal
  TGI: 33.4 µM
CAKI-1 renal
  TGI: 30.2 µM
CCRF-CEM leukemia
  TGI: 5.58 µM
COLO 205 colon
  TGI: 39.4 µM
DU-145 prostate
  TGI: 52.3 µM
EKVX NSCLC
  TGI: 34.7 µM
HCC-2998 colon
  TGI: 32.6 µM
HCT-116 colon
  TGI: 32.6 µM
HCT-15 colon
  TGI: 34.4 µM
HL-60(TB) leukemia
  TGI: > 100 µM
HOP-62 NSCLC
  TGI: 98.9 µM
HS 578T breast
  TGI: 73.5 µM
HT29 colon
  TGI: 43.9 µM
IGROV1 ovarian
  TGI: 31.9 µM
KM12 colon
  TGI: 43.2 µM
LOX IMVI melanoma
  TGI: 29.8 µM
M14 melanoma
  TGI: 47.7 µM
MALME-3M melanoma
  TGI: 36.3 µM
MCF7 breast
  TGI: 39.6 µM
MDA-MB-231 breast
  TGI: 39.6 µM
MDA-MB-435
  TGI: 34.4 µM
MDA-N
  TGI: 31.6 µM
MOLT-4 leukemia
  TGI: 16.3 µM
NCI-H226 lung
  TGI: 44 µM
NCI-H23 lung
  TGI: 64.9 µM
NCI-H460 lung
  TGI: 48.5 µM
NCI-H522 lung
  TGI: 36.5 µM
NCI/ADR-RES ovarian
  TGI: 82.4 µM
OVCAR-3 ovarian
  TGI: 43.5 µM
OVCAR-4 ovarian
  TGI: 31.2 µM
OVCAR-5 ovarian
  TGI: 32.3 µM
OVCAR-8 ovarian
  TGI: 54.4 µM
PC-3 prostate
  TGI: 26.3 µM
RPMI-8226 leukemia
  TGI: > 100 µM
RXF 393 renal
  TGI: 27.9 µM
SF-268 CNS
  TGI: 82.9 µM
SF-295 CNS
  TGI: 33.8 µM
SF-539 CNS
  TGI: 30.8 µM
SK-MEL-2 melanoma
  TGI: 34.3 µM
SK-MEL-28 melanoma
  TGI: 41.5 µM
SK-MEL-5 melanoma
  TGI: 28.2 µM
SN12C renal
  TGI: 31.6 µM
SNB-19 CNS
  TGI: > 100 µM
SNB-75 CNS
  TGI: 60.1 µM
SR leukemia
  TGI: > 100 µM
SW-620 colon
  TGI: 28.6 µM
T-47D breast
  TGI: 35.3 µM
TK-10 renal
  TGI: 35.6 µM
U251 CNS
  TGI: 41.3 µM
UACC-257 melanoma
  TGI: 33 µM
UACC-62 melanoma
  TGI: 33.8 µM
UO-31 renal
  TGI: 31.3 µM

## CCOC(=O)C(NC(=O)CC(C)C)(NC(C)C)C(F)(F)F (stereo unspecified)
786-0 renal
  TGI: > 100 µM
A498 renal
  TGI: > 100 µM
A549 NSCLC
  TGI: > 100 µM
ACHN renal
  TGI: > 100 µM
CAKI-1 renal
  TGI: > 100 µM
CCRF-CEM leukemia
  TGI: > 100 µM
COLO 205 colon
  TGI: > 100 µM
DU-145 prostate
  TGI: > 100 µM
EKVX NSCLC
  TGI: > 100 µM
HCC-2998 colon
  TGI: > 100 µM
HCT-116 colon
  TGI: > 100 µM
HCT-15 colon
  TGI: > 100 µM
HL-60(TB) leukemia
  TGI: > 100 µM
HOP-62 NSCLC
  TGI: > 100 µM
HOP-92 NSCLC
  TGI: > 100 µM
HS 578T breast
  TGI: > 100 µM
HT29 colon
  TGI: > 100 µM
IGROV1 ovarian
  TGI: > 100 µM
K-562 leukemia
  TGI: > 100 µM
KM12 colon
  TGI: > 100 µM
LOX IMVI melanoma
  TGI: > 100 µM
M14 melanoma
  TGI: > 100 µM
MALME-3M melanoma
  TGI: > 100 µM
MCF7 breast
  TGI: > 100 µM
MDA-MB-231 breast
  TGI: > 100 µM
MDA-MB-435
  TGI: > 100 µM
MDA-N
  TGI: > 100 µM
MOLT-4 leukemia
  TGI: > 100 µM
NCI-H226 lung
  TGI: > 100 µM
NCI-H23 lung
  TGI: > 100 µM
NCI-H460 lung
  TGI: > 100 µM
NCI-H522 lung
  TGI: > 100 µM
NCI/ADR-RES ovarian
  TGI: > 100 µM
OVCAR-3 ovarian
  TGI: > 100 µM
OVCAR-4 ovarian
  TGI: > 100 µM
OVCAR-5 ovarian
  TGI: > 100 µM
OVCAR-8 ovarian
  TGI: > 100 µM
PC-3 prostate
  TGI: > 100 µM
RPMI-8226 leukemia
  TGI: > 100 µM
RXF 393 renal
  TGI: > 100 µM
SF-268 CNS
  TGI: > 100 µM
SF-295 CNS
  TGI: > 100 µM
SF-539 CNS
  TGI: > 100 µM
SK-MEL-2 melanoma
  TGI: > 100 µM
SK-MEL-28 melanoma
  TGI: > 100 µM
SK-MEL-5 melanoma
  TGI: > 100 µM
SK-OV-3 ovarian
  TGI: > 100 µM
SN12C renal
  TGI: > 100 µM
SNB-19 CNS
  TGI: > 100 µM
SR leukemia
  TGI: > 100 µM
SW-620 colon
  TGI: > 100 µM
T-47D breast
  TGI: > 100 µM
TK-10 renal
  TGI: > 100 µM
U251 CNS
  TGI: > 100 µM
UACC-257 melanoma
  TGI: > 100 µM
UO-31 renal
  TGI: > 100 µM

## N#Cc1c(N)nc(Nc2cccc3ccccc23)c(C#N)c1C#N
A498 renal
  TGI: > 10 µM
A549 NSCLC
  TGI: > 10 µM
ACHN renal
  TGI: > 10 µM
CAKI-1 renal
  TGI: > 10 µM
CCRF-CEM leukemia
  TGI: 6.05 µM
COLO 205 colon
  TGI: > 10 µM
DU-145 prostate
  TGI: > 10 µM
EKVX NSCLC
  TGI: > 10 µM
HCC-2998 colon
  TGI: > 10 µM
HCT-116 colon
  TGI: > 10 µM
HCT-15 colon
  TGI: > 10 µM
HL-60(TB) leukemia
  TGI: 4.77 µM
HOP-62 NSCLC
  TGI: > 10 µM
HS 578T breast
  TGI: 8.7 µM
HT29 colon
  TGI: > 10 µM
IGROV1 ovarian
  TGI: > 10 µM
K-562 leukemia
  TGI: 9.64 µM
KM12 colon
  TGI: > 10 µM
LOX IMVI melanoma
  TGI: 4.36 µM
M14 melanoma
  TGI: > 10 µM
MALME-3M melanoma
  TGI: > 10 µM
MCF7 breast
  TGI: > 10 µM
MDA-MB-231 breast
  TGI: > 10 µM
MDA-MB-435
  TGI: > 10 µM
MDA-N
  TGI: 4 µM
MOLT-4 leukemia
  TGI: 9.2 µM
NCI-H226 lung
  TGI: > 10 µM
NCI-H23 lung
  TGI: > 10 µM
NCI-H460 lung
  TGI: > 10 µM
NCI-H522 lung
  TGI: > 10 µM
NCI/ADR-RES ovarian
  TGI: > 10 µM
OVCAR-3 ovarian
  TGI: 7.57 µM
OVCAR-4 ovarian
  TGI: > 10 µM
OVCAR-5 ovarian
  TGI: > 10 µM
OVCAR-8 ovarian
  TGI: > 10 µM
PC-3 prostate
  TGI: > 10 µM
RPMI-8226 leukemia
  TGI: 6.19 µM
RXF 393 renal
  TGI: > 10 µM
SF-268 CNS
  TGI: > 10 µM
SF-295 CNS
  TGI: > 10 µM
SF-539 CNS
  TGI: > 10 µM
SK-MEL-2 melanoma
  TGI: > 10 µM
SK-MEL-28 melanoma
  TGI: > 10 µM
SK-MEL-5 melanoma
  TGI: > 10 µM
SK-OV-3 ovarian
  TGI: > 10 µM
SN12C renal
  TGI: > 10 µM
SNB-19 CNS
  TGI: > 10 µM
SNB-75 CNS
  TGI: > 10 µM
SR leukemia
  TGI: 9.29 µM
SW-620 colon
  TGI: > 10 µM
T-47D breast
  TGI: > 10 µM
TK-10 renal
  TGI: > 10 µM
U251 CNS
  TGI: > 10 µM
UACC-62 melanoma
  TGI: > 10 µM
UO-31 renal
  TGI: > 10 µM

— PubChem BioAssay (NCI)
